Positions of bridges follow the written chain, without caps; N, C: chain ends. Non-standard residues stand in square brackets, D forms with d. Residues, ends and D or L forms follow the SMILES beside them. Phe(3,4-(OMe)2) = COc1ccc(C[C@H](N)C(=O)O)cc1OC
Key:
hNav1.7 = hNav1.7 (Homo sapiens, UniProt Q15858); assay: cell-based; conditions: Nav1.7 Use IC50
hNav1.5 = hNav1.5 (Homo sapiens, UniProt Q14524); assay: cell-based
Sequence of hNav1.5 (Q14524 whole entry, looked up): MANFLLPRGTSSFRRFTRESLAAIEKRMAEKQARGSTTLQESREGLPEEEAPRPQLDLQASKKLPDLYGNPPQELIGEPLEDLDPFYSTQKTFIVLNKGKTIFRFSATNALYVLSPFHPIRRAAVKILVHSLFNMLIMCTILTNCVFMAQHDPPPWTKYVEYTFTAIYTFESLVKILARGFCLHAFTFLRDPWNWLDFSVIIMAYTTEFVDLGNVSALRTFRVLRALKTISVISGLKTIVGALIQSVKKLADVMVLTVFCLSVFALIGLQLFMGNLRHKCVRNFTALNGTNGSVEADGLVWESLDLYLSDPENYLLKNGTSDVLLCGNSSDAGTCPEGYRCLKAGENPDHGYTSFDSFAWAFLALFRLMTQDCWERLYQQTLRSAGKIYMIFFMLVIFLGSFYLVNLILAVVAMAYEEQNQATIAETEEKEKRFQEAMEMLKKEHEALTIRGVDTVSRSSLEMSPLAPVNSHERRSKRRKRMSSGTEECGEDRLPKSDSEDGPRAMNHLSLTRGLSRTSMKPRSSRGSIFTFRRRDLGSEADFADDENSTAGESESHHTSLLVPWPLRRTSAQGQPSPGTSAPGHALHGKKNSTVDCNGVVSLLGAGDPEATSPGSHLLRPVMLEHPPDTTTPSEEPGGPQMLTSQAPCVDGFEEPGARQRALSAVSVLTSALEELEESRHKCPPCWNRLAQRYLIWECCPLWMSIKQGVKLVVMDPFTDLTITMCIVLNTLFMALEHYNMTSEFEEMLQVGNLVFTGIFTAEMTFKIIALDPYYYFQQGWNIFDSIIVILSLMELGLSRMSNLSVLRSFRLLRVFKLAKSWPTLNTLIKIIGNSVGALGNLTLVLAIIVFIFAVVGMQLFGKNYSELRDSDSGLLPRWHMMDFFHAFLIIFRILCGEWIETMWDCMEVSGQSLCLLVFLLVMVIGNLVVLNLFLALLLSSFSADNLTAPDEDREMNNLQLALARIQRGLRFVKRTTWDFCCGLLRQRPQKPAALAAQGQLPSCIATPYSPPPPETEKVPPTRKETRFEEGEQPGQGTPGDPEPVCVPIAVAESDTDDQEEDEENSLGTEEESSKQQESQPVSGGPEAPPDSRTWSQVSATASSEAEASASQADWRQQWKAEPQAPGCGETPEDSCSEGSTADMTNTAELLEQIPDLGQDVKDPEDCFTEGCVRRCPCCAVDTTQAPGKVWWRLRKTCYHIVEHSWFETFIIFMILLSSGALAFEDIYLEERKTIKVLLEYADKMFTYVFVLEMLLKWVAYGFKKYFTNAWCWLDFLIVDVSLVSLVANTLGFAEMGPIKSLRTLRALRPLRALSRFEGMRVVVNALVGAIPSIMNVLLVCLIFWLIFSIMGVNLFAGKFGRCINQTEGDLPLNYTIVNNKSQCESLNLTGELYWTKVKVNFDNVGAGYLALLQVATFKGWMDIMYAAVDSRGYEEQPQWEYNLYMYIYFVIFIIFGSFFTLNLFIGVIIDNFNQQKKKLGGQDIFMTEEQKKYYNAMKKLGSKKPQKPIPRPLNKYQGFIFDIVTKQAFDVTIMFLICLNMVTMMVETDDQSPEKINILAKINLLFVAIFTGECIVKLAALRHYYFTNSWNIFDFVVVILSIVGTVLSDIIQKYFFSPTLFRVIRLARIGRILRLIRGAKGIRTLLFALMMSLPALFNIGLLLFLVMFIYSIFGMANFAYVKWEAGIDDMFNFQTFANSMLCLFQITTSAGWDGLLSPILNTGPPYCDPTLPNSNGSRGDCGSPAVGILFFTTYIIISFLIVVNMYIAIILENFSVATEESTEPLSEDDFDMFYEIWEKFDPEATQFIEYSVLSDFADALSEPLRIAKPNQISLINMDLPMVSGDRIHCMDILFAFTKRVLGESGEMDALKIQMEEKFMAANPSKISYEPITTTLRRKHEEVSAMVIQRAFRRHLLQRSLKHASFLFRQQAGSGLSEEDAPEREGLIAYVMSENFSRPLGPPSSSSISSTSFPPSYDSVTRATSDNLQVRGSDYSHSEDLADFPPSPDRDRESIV

Sequence of hNav1.7 (Q15858 whole entry, looked up): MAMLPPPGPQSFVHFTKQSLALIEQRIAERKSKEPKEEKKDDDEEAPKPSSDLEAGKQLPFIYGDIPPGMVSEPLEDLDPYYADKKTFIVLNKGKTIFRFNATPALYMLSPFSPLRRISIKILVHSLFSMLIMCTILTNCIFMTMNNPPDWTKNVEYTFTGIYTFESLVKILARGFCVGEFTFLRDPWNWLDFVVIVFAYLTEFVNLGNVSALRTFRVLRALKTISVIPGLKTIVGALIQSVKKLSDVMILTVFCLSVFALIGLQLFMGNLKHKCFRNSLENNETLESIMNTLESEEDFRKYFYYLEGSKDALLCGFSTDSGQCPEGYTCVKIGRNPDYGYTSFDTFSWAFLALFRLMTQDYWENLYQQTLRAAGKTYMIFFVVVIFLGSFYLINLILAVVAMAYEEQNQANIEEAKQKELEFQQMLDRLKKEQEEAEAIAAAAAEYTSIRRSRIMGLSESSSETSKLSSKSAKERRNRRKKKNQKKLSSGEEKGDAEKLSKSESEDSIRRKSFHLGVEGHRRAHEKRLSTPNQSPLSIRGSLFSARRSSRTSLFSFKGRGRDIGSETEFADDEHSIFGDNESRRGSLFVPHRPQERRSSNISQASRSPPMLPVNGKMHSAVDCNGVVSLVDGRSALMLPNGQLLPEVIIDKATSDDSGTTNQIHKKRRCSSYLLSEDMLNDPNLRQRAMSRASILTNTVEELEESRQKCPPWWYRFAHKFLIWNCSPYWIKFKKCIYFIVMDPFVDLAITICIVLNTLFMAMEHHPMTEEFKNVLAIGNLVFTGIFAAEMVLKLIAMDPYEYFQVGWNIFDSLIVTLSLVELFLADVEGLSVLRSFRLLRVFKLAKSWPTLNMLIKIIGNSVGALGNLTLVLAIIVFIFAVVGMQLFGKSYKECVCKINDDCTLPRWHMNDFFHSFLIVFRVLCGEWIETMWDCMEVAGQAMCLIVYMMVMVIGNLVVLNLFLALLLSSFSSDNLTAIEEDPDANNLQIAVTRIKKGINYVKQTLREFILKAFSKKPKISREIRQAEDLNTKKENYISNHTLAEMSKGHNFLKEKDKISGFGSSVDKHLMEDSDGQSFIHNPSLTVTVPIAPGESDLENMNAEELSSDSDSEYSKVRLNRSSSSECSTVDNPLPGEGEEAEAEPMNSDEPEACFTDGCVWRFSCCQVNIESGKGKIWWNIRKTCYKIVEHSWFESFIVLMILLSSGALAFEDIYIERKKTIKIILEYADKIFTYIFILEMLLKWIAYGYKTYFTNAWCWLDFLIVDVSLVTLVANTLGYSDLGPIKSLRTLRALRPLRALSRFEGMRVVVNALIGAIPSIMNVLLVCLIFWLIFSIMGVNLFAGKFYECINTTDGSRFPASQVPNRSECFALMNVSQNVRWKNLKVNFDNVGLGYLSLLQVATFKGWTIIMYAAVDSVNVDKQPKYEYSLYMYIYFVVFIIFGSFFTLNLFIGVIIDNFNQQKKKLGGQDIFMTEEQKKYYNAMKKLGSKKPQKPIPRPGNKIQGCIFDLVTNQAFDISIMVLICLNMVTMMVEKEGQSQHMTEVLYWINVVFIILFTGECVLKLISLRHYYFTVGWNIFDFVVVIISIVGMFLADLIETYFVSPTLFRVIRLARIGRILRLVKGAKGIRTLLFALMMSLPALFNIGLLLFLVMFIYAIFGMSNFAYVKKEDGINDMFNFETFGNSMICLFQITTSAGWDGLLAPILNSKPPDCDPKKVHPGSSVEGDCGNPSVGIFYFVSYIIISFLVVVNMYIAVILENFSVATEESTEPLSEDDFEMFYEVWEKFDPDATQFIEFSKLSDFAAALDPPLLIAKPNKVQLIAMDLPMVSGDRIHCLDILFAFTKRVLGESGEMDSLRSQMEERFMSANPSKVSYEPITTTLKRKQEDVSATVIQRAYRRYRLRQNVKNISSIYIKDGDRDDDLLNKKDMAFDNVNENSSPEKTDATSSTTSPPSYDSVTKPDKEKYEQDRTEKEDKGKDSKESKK

## CC[C@H](C)[C@@H]1NC(=O)[C@@H]2CSSC[C@@H]3NC(=O)[C@H](C(C)C)NC(=O)[C@H](CC(C)C)NC(=O)[C@H](CC(N)=O)NC(=O)[C@@H]4CCCN4C(=O)[C@H](CCCNC(=N)N)NC(=O)[C@H](CSSC[C@H](NC(=O)[C@@H](N)CC(=O)O)C(=O)N[C@@H](CC(C)C)C(=O)NCC(=O)N[C@@H](Cc4ccccc4)C(=O)N[C@@H](CCSC)C(=O)N[C@@H](CCCNC(=N)N)C(=O)N[C@@H](CCCCN)C(=O)N2)NC(=O)[C@H](CSSC[C@@H](C(=O)N[C@@H](CCCCN)C(=O)N[C@@H](Cc2ccc(O)cc2)C(=O)N[C@H](C(=O)N[C@@H](Cc2ccccc2)C(N)=O)C(C)C)NC(=O)[C@H](Cc2c[nH]c4ccccc24)NC(=O)[C@H](CCCCN)NC(=O)[C@H](Cc2cnc[nH]2)NC(=O)[C@H]([C@@H](C)O)NC(=O)[C@H](C)NC(=O)[C@H](CO)NC3=O)NC(=O)[C@H](CCCCN)NC(=O)[C@H](CC(=O)O)NC(=O)[C@H](CC(N)=O)NC(=O)[C@H](CC(=O)O)NC(=O)[C@@H]2CCCN2C1=O [[Ala25]GpTx-1(1-34)] (H-DCLGFMRKCIPDNDKCCRPNLVCSATHKWCKYVF-NH2; disulfide 2-17, 9-23, 16-30)
hNav1.7
  IC50: 12 nM
hNav1.5
  IC50: 10000 nM

## CC[C@H](C)[C@@H]1NC(=O)[C@@H]2CSSC[C@@H]3NC(=O)[C@H](C(C)C)NC(=O)[C@H](CC(C)C)NC(=O)[C@H](CC(N)=O)NC(=O)[C@@H]4CCCN4C(=O)[C@H](CCCNC(=N)N)NC(=O)[C@H](CSSC[C@H](NC(=O)[C@@H](N)CC(=O)O)C(=O)N[C@@H](CC(C)C)C(=O)N[C@@H](CCCNC(=N)N)C(=O)N[C@@H](CCSC)C(=O)N[C@@H](CCSC)C(=O)N[C@@H](CCCNC(=N)N)C(=O)N[C@@H](CCCCN)C(=O)N2)NC(=O)[C@H](CSSC[C@@H](C(=O)N[C@@H](CCCCN)C(=O)N[C@@H](Cc2ccc(O)cc2)C(=O)N[C@H](C(=O)N[C@@H](Cc2ccccc2)C(N)=O)C(C)C)NC(=O)[C@H](Cc2c[nH]c4ccccc24)NC(=O)[C@H](CCCCN)NC(=O)[C@H](Cc2c[nH]cn2)NC(=O)[C@H]([C@@H](C)O)NC(=O)[C@H](CCCNC(=N)N)NC(=O)[C@H](CO)NC3=O)NC(=O)[C@H](CCCCN)NC(=O)[C@H](CC(=O)O)NC(=O)[C@H](CC(N)=O)NC(=O)[C@H](CC(=O)O)NC(=O)[C@@H]2CCCN2C1=O [[Arg4;Met5]GpTx-1(1-34)] (H-DCLRMMRKCIPDNDKCCRPNLVCSRTHKWCKYVF-NH2; disulfide 2-17, 9-23, 16-30)
hNav1.7
  IC50: 29 nM
hNav1.5
  IC50: 13200 nM

## CC[C@H](C)[C@@H]1NC(=O)[C@@H]2CSSC[C@@H]3NC(=O)[C@H](C(C)C)NC(=O)[C@H](CC(C)C)NC(=O)[C@H](CC(N)=O)NC(=O)[C@@H]4CCCN4C(=O)[C@H](CCCNC(N)=O)NC(=O)[C@H](CSSC[C@H](NC(=O)[C@@H](N)CC(=O)O)C(=O)N[C@@H](CC(C)C)C(=O)NCC(=O)N[C@@H](Cc4ccccc4)C(=O)N[C@@H](CCSC)C(=O)N[C@@H](CCCNC(=N)N)C(=O)N[C@@H](CCCCN)C(=O)N2)NC(=O)[C@H](CSSC[C@@H](C(=O)N[C@@H](CCCCN)C(=O)N[C@@H](Cc2ccc(O)cc2)C(=O)N[C@H](C(=O)N[C@@H](Cc2ccccc2)C(N)=O)C(C)C)NC(=O)[C@H](Cc2c[nH]c4ccccc24)NC(=O)[C@H](CCCCN)NC(=O)[C@H](Cc2cnc[nH]2)NC(=O)[C@H]([C@@H](C)O)NC(=O)[C@H](CCCNC(=N)N)NC(=O)[C@H](CO)NC3=O)NC(=O)[C@H](CCCCN)NC(=O)[C@H](CC(=O)O)NC(=O)[C@H](CC(N)=O)NC(=O)[C@H](CC(=O)O)NC(=O)[C@@H]2CCCN2C1=O [[Cit18]GpTx-1(1-34)]
hNav1.7
  IC50: 2 nM
hNav1.5
  IC50: 10000 nM

## CC[C@H](C)[C@@H]1NC(=O)[C@@H]2CSSC[C@@H]3NC(=O)[C@H](C(C)C)NC(=O)[C@H](CC(C)C)NC(=O)[C@H](CC(N)=O)NC(=O)[C@@H]4CCCN4C(=O)[C@H](CCCNC(=N)N)NC(=O)[C@H](CSSC[C@H](NC(=O)[C@@H](N)CC(=O)O)C(=O)N[C@@H](CC(C)C)C(=O)NCC(=O)N[C@@H](Cc4ccccc4)C(=O)N[C@@H](CCSC)C(=O)N[C@@H](CCCNC(=N)N)C(=O)N[C@@H](CCCCN)C(=O)N2)NC(=O)[C@H](CSSC[C@@H](C(=O)N[C@@H](CCCCN)C(=O)N[C@@H](Cc2ccc(O)cc2)C(=O)N[C@H](C(=O)N[C@@H](Cc2ccccc2)C(N)=O)C(C)C)NC(=O)[C@H](Cc2c[nH]c4ccccc24)NC(=O)[C@H](CCCCN)NC(=O)[C@H](Cc2c[nH]cn2)NC(=O)[C@H]([C@@H](C)O)NC(=O)[C@H](CCCNC(N)=O)NC(=O)[C@H](CO)NC3=O)NC(=O)[C@H](CCCCN)NC(=O)[C@H](CC(=O)O)NC(=O)[C@H](CC(N)=O)NC(=O)[C@H](CC(=O)O)NC(=O)[C@@H]2CCCN2C1=O [[Cit25]GpTx-1(1-34)]
hNav1.7
  IC50: 4 nM
hNav1.5
  IC50: > 10000 nM

## CC[C@H](C)[C@@H]1NC(=O)[C@@H]2CSSC[C@@H]3NC(=O)[C@H](C(C)C)NC(=O)[C@H](CC(C)C)NC(=O)[C@H](CC(N)=O)NC(=O)[C@@H]4CCCN4C(=O)[C@H](CCCNC(=N)N)NC(=O)[C@H](CSSC[C@H](NC(=O)[C@@H](N)CC(=O)O)C(=O)N[C@@H](CC(C)C)C(=O)NCC(=O)N[C@@H](Cc4ccc(OC)c(OC)c4)C(=O)N[C@@H](Cc4ccccc4)C(=O)N[C@@H](CCCNC(=N)N)C(=O)N[C@@H](CCCCN)C(=O)N2)NC(=O)[C@H](CSSC[C@@H](C(=O)N[C@@H](CCCCN)C(=O)N[C@@H](Cc2ccc(O)cc2)C(=O)N[C@H](C(=O)N[C@@H](Cc2ccccc2)C(N)=O)C(C)C)NC(=O)[C@H](Cc2c[nH]c4ccccc24)NC(=O)[C@H](CCCCN)NC(=O)[C@H](Cc2c[nH]cn2)NC(=O)[C@H]([C@@H](C)O)NC(=O)[C@H](CCCNC(=N)N)NC(=O)[C@H](CO)NC3=O)NC(=O)[C@H](CCCCN)NC(=O)[C@H](CC(=O)O)NC(=O)[C@H](CC(N)=O)NC(=O)[C@H](CC(=O)O)NC(=O)[C@@H]2CCCN2C1=O [[DiMeO-F5;Phe6]GpTx-1(1-34)] (H-DCLG[Phe(3,4-(OMe)2)]FRKCIPDNDKCCRPNLVCSRTHKWCKYVF-NH2; disulfide 2-17, 9-23, 16-30)
hNav1.7
  IC50: 33 nM
hNav1.5
  IC50: > 10000 nM

## CC[C@H](C)[C@@H]1NC(=O)[C@@H]2CSSC[C@@H]3NC(=O)[C@H](C(C)C)NC(=O)[C@H](CC(C)C)NC(=O)[C@H](CC(N)=O)NC(=O)[C@@H]4CCCN4C(=O)[C@H](CCCNC(=N)N)NC(=O)[C@H](CSSC[C@H](NC(=O)[C@@H](N)CC(=O)O)C(=O)N[C@@H](CC(C)C)C(=O)NCC(=O)N[C@@H](Cc4ccccc4)C(=O)N[C@@H](CCSC)C(=O)N[C@@H](CCCNC(=N)N)C(=O)N[C@@H](CCCCN)C(=O)N2)NC(=O)[C@H](CSSC[C@@H](C(=O)N[C@@H](CCCCN)C(=O)N[C@@H](Cc2ccc(O)cc2)C(=O)N[C@H](C(=O)N[C@@H](Cc2ccccc2)C(N)=O)C(C)C)NC(=O)[C@H](Cc2c[nH]c4ccccc24)NC(=O)[C@H](CCCCN)NC(=O)[C@H](Cc2c[nH]cn2)NC(=O)[C@H]([C@@H](C)O)NC(=O)[C@H](CCCNC(=N)N)NC(=O)[C@H](CO)NC3=O)NC(=O)[C@H](CCC(=O)O)NC(=O)[C@H](CC(=O)O)NC(=O)[C@H](CC(N)=O)NC(=O)[C@H](CC(=O)O)NC(=O)[C@@H]2CCCN2C1=O [[Glu15]GpTx-1(1-34)] (H-DCLGFMRKCIPDNDECCRPNLVCSRTHKWCKYVF-NH2; disulfide 2-17, 9-23, 16-30)
hNav1.7
  IC50: 20 nM
hNav1.5
  IC50: 10000 nM
